Data from US20200061036A1, “ACECLIDINE ISOMERS AND SCALEMIC MIXTURES THEREOF FOR THE TREATMENT OF PRESBYOPIA” (Presbyopia Therapies, LLC, priority 2018, published 2020).

How the values were obtained:
[1] = system: subject; test: Net gain in lines of visual acuity at 45 centimeters after binocular instillation of aceclidine enantiomer solutions (Example 1, prophetic); assay type: in vivo; settings: for Net gain in lines of visual acuity versus baseline, monocularly: first figure of cell; for Net gain in lines of visual acuity versus baseline, binocularly: second figure of cell
Experimental: Solutions containing scalemic mixtures of or enantiomerically pure aceclidine in 1.50% w/v polysorbate 80, 1.2% w/v hydroxypropylmethyl cellulose, 0.1% w/v disodium ethylenediaminetetraacetic acid, 0.1% w/v sorbate in 0.9% w/v sodium chloride buffered saline at a pH of 6.5 were instilled, binocularly in a subject. The subject's visual acuity at 45 centimeters was then tested both monocularly and binocularly. Net gain in lines of visual acuity versus baseline monocularly/binocularly are shown in Table 1 below at 1, 2 and 5 hours post-instillation.

[2] = system: accommodation; settings: cited from earlier work

CC(=O)OC1CN2CCC1CC2 (centres unmarked) [50/50, aceclidine]
Net gain in lines of visual acuity versus baseline, monocularly ([1]; 1 hour post-instillation): 2.00 lines | Net gain in lines of visual acuity versus baseline, binocularly ([1]; 1 hour post-instillation): 3.00 lines | Net gain in lines of visual acuity versus baseline, monocularly ([1]; 2 hours post-instillation): 1.50 lines | Net gain in lines of visual acuity versus baseline, binocularly ([1]; 2 hours post-instillation): 2.50 lines | Net gain in lines of visual acuity versus baseline, monocularly ([1]; 5 hours post-instillation): 1.00 lines | Net gain in lines of visual acuity versus baseline, binocularly ([1]; 5 hours post-instillation): 1.50 lines

aceclidine [25/75]
Net gain in lines of visual acuity versus baseline, monocularly ([1]; 1 hour post-instillation): 1.50/1.50 lines | Net gain in lines of visual acuity versus baseline, binocularly ([1]; 1 hour post-instillation): 1.50/1.50 lines | Net gain in lines of visual acuity versus baseline, monocularly ([1]; 2 hours post-instillation): 0.75 lines | Net gain in lines of visual acuity versus baseline, binocularly ([1]; 2 hours post-instillation): 1.25 lines | Net gain in lines of visual acuity versus baseline, monocularly ([1]; 5 hours post-instillation): 0.50 lines | Net gain in lines of visual acuity versus baseline, binocularly ([1]; 5 hours post-instillation): 1.00 lines

aceclidine [87.5/12.5]
Net gain in lines of visual acuity versus baseline, monocularly ([1]; 1 hour post-instillation): 1.75 lines | Net gain in lines of visual acuity versus baseline, binocularly ([1]; 1 hour post-instillation): 3.25 lines | Net gain in lines of visual acuity versus baseline, monocularly ([1]; 2 hours post-instillation): 1.40 lines | Net gain in lines of visual acuity versus baseline, binocularly ([1]; 2 hours post-instillation): 2.90 lines | Net gain in lines of visual acuity versus baseline, monocularly ([1]; 5 hours post-instillation): 0.90 lines | Net gain in lines of visual acuity versus baseline, binocularly ([1]; 5 hours post-instillation): 2.25 lines

aceclidine [75/25]
Net gain in lines of visual acuity versus baseline, monocularly ([1]; 1 hour post-instillation): 1.50 lines | Net gain in lines of visual acuity versus baseline, binocularly ([1]; 1 hour post-instillation): 2.50 lines | Net gain in lines of visual acuity versus baseline, monocularly ([1]; 2 hours post-instillation): 1.20 lines | Net gain in lines of visual acuity versus baseline, binocularly ([1]; 2 hours post-instillation): 2.80 lines | Net gain in lines of visual acuity versus baseline, monocularly ([1]; 5 hours post-instillation): 0.70 lines | Net gain in lines of visual acuity versus baseline, binocularly ([1]; 5 hours post-instillation): 2.00 lines

CC[C@@H]1C(=O)OC[C@@H]1Cc1cncn1C [Pilocarpine, pilocarpine]
induced accommodation documented in presbyopes ([2]; 2% concentration, presbyopes): ≥ −5 D

CC(=O)OC1CN2CCC1CC2 (centres unmarked) [aceclidine]
induced accommodation ([2]; as little as, with a range of variability): −0.37 D

CC(=O)OC1CN2CCC1CC2 (centres unmarked) [100/0, aceclidine]
Net gain in lines of visual acuity versus baseline, monocularly ([1]; 1 hour post-instillation): 2.00 lines | Net gain in lines of visual acuity versus baseline, binocularly ([1]; 1 hour post-instillation): 3.50 lines | Net gain in lines of visual acuity versus baseline, monocularly ([1]; 2 hours post-instillation): 1.75 lines | Net gain in lines of visual acuity versus baseline, binocularly ([1]; 2 hours post-instillation): 3.00 lines | Net gain in lines of visual acuity versus baseline, monocularly ([1]; 5 hours post-instillation): 1.50 lines | Net gain in lines of visual acuity versus baseline, binocularly ([1]; 5 hours post-instillation): 2.50 lines

aceclidine [62.5/22.5]
Net gain in lines of visual acuity versus baseline, monocularly ([1]; 1 hour post-instillation): 1.40 lines | Net gain in lines of visual acuity versus baseline, binocularly ([1]; 1 hour post-instillation): 3.20 lines | Net gain in lines of visual acuity versus baseline, monocularly ([1]; 2 hours post-instillation): 1.70 lines | Net gain in lines of visual acuity versus baseline, binocularly ([1]; 2 hours post-instillation): 2.70 lines | Net gain in lines of visual acuity versus baseline, monocularly ([1]; 5 hours post-instillation): 1.20 lines | Net gain in lines of visual acuity versus baseline, binocularly ([1]; 5 hours post-instillation): 1.60 lines
